{
  "source": "patent US20260262643A1",
  "about": "“HERBICIDAL BENZOXAZINES” (FMC CORPORATION, priority 2022, published 2026)",
  "key": {"barnyardgrass [1]": {"test_system": "barnyardgrass", "assay": "Test C preemergence", "type": "in vivo, Echinochloa crusgalli", "method_in_brief": "(§1)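 Visual injury ratings on a 0–100 scale (100 = complete control) were made against untreated controls 10 days after treatment in the greenhouse. Compounds, formulated with surfactant in non-phytotoxic solvent, were sprayed on soil preemergence or onto one- to two-leaf plants 2–10 cm tall postemergence.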"}, "blackgrass [2]": {"test_system": "blackgrass", "assay": "Test C preemergence", "type": "in vivo, Alopecurus myosuroides", "method_in_brief": "as §1"}, "corn [3]": {"test_system": "corn", "assay": "Test C preemergence", "type": "in vivo, Zea mays", "method_in_brief": "as §1"}, "green foxtail [4]": {"test_system": "green foxtail", "assay": "Test C preemergence", "type": "in vivo, Setaria viridis", "method_in_brief": "as §1"}, "kochia [5]": {"test_system": "kochia", "assay": "Test C preemergence", "type": "in vivo, Bassia scoparia", "method_in_brief": "as §1"}, "oat, wild [6]": {"test_system": "oat, wild", "assay": "Test C preemergence", "type": "in vivo, Avena fatua", "method_in_brief": "as §1"}, "pigweed, palmer [7]": {"test_system": "pigweed, palmer", "assay": "Test C preemergence", "type": "in vivo, Amaranthus palmeri", "method_in_brief": "as §1"}, "ragweed [8]": {"test_system": "ragweed", "assay": "Test C preemergence", "type": "in vivo, Ambrosia artemisiifolia", "method_in_brief": "as §1"}, "ryegrass, Italian [9]": {"test_system": "ryegrass, Italian", "assay": "Test C preemergence", "type": "in vivo, Lolium multiflorum", "method_in_brief": "as §1"}, "soybean [10]": {"test_system": "soybean", "assay": "Test C preemergence", "type": "in vivo, Glycine max", "method_in_brief": "as §1"}, "wheat [11]": {"test_system": "wheat", "assay": "Test C preemergence", "type": "in vivo, Triticum aestivum", "method_in_brief": "as §1"}, "barnyardgrass [12]": {"test_system": "barnyardgrass", "assay": "Test C postemergence", "type": "in vivo, Echinochloa crusgalli", "conditions": "10 days, 0 to 100 scale (0 no effect, 100 complete control)", "method_in_brief": "as §1"}, "blackgrass [13]": {"test_system": "blackgrass", "assay": "Test C postemergence", "type": "in vivo, Alopecurus myosuroides", "conditions": "10 days, 0 to 100 scale (0 no effect, 100 complete control)", "method_in_brief": "as §1"}, "corn [14]": {"test_system": "corn", "assay": "Test C postemergence", "type": "in vivo, Zea mays", "conditions": "10 days, 0 to 100 scale (0 no effect, 100 complete control)", "method_in_brief": "as §1"}, "green foxtail [15]": {"test_system": "green foxtail", "assay": "Test C postemergence", "type": "in vivo, Setaria viridis", "conditions": "10 days, 0 to 100 scale (0 no effect, 100 complete control)", "method_in_brief": "as §1"}, "kochia [16]": {"test_system": "kochia", "assay": "Test C postemergence", "type": "in vivo, Bassia scoparia", "conditions": "10 days, 0 to 100 scale (0 no effect, 100 complete control)", "method_in_brief": "as §1"}, "oat, wild [17]": {"test_system": "oat, wild", "assay": "Test C postemergence", "type": "in vivo, Avena fatua", "conditions": "10 days, 0 to 100 scale (0 no effect, 100 complete control)", "method_in_brief": "as §1"}, "pigweed, palmer [18]": {"test_system": "pigweed, palmer", "assay": "Test C postemergence", "type": "in vivo, Amaranthus palmeri", "conditions": "10 days, 0 to 100 scale (0 no effect, 100 complete control)", "method_in_brief": "as §1"}, "ragweed [19]": {"test_system": "ragweed", "assay": "Test C postemergence", "type": "in vivo, Ambrosia artemisiifolia", "conditions": "10 days, 0 to 100 scale (0 no effect, 100 complete control)", "method_in_brief": "as §1"}, "ryegrass, Italian [20]": {"test_system": "ryegrass, Italian", "assay": "Test C postemergence", "type": "in vivo, Lolium multiflorum", "conditions": "10 days, 0 to 100 scale (0 no effect, 100 complete control)", "method_in_brief": "as §1"}, "soybean [21]": {"test_system": "soybean", "assay": "Test C postemergence", "type": "in vivo, Glycine max", "conditions": "10 days, 0 to 100 scale (0 no effect, 100 complete control)", "method_in_brief": "as §1"}, "wheat [22]": {"test_system": "wheat", "assay": "Test C postemergence", "type": "in vivo, Triticum aestivum", "conditions": "10 days, 0 to 100 scale (0 no effect, 100 complete control)", "method_in_brief": "as §1"}, "galium": {"test_system": "galium", "assay": "Test C postemergence", "type": "in vivo, Galium aparine", "conditions": "10 days, 0 to 100 scale (0 no effect, 100 complete control)", "method_in_brief": "as §1"}, "horseweed": {"test_system": "horseweed", "assay": "Test C postemergence", "type": "in vivo, Erigeron canadensis", "conditions": "10 days, 0 to 100 scale (0 no effect, 100 complete control)", "method_in_brief": "as §1"}, "barnyardgrass [23]": {"test_system": "barnyardgrass", "assay": "Test D flooded paddy test", "type": "in vivo, Echinochloa crus-galli", "conditions": "250 g ai/ha, applied to paddy water, visual rating after 13 to 14 days, scale 0 to 100 (0 no effect, 100 complete control)", "method_in_brief": "(§2)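 Visual ratings from 0, meaning no effect, to 100, meaning complete control, were assigned against untreated controls 13 to 14 days after compounds were added to the floodwater of pots kept 3 cm deep, with plants at the 2-leaf stage.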"}, "ducksalad": {"test_system": "ducksalad", "assay": "Test D flooded paddy test", "type": "in vivo, Heteranthera limosa", "conditions": "250 g ai/ha, applied to paddy water, visual rating after 13 to 14 days, scale 0 to 100 (0 no effect, 100 complete control)", "method_in_brief": "as §2"}, "rice": {"test_system": "rice", "assay": "Test D flooded paddy test", "type": "in vivo, Oryza sativa", "conditions": "250 g ai/ha, applied to paddy water, visual rating after 13 to 14 days, scale 0 to 100 (0 no effect, 100 complete control)", "method_in_brief": "as §2"}, "sedge, umbrella": {"test_system": "sedge, umbrella", "assay": "Test D flooded paddy test", "type": "in vivo, Cyperus difformis", "conditions": "250 g ai/ha, applied to paddy water, visual rating after 13 to 14 days, scale 0 to 100 (0 no effect, 100 complete control)", "method_in_brief": "as §2"}, "[24]": {"conditions": "500 g ai/ha, preemergence, 0 to 100 scale (0 no effect, 100 complete control)"}, "[25]": {"conditions": "Preemergence, 125 g ai/ha, 0 to 100 scale, 0 no effect, 100 complete control"}},
  "data": [
    {"smiles": "Cc1ccc(-n2cnc(C#N)n2)cc1C(=O)N1C[C@H](C)Oc2c(Cl)cccc21", "note": "[Compound 363]", "values": [
      {"measurement": "Barnyardgrass plant response rating", "setting": "barnyardgrass [1]; [24]", "value": 60},
      {"measurement": "Plant response rating, Barnyardgrass", "setting": "barnyardgrass [1]; [25]", "value": 40},
      {"measurement": "Blackgrass plant response rating", "setting": "blackgrass [2]; [24]", "value": 30},
      {"measurement": "Plant response rating, Blackgrass", "setting": "blackgrass [2]; [25]", "value": 0},
      {"measurement": "Corn plant response rating", "setting": "corn [3]; [24]", "value": 0},
      {"measurement": "Plant response rating, Corn", "setting": "corn [3]; [25]", "value": 0},
      {"measurement": "Foxtail, Green plant response rating", "setting": "green foxtail [4]; [24]", "value": 100},
      {"measurement": "Plant response rating, Foxtail, Green", "setting": "green foxtail [4]; [25]", "value": 100},
      {"measurement": "Kochia plant response rating", "setting": "kochia [5]; [24]", "value": 0},
      {"measurement": "Plant response rating, Kochia", "setting": "kochia [5]; [25]", "value": 0},
      {"measurement": "Oat, Wild plant response rating", "setting": "oat, wild [6]; [24]", "value": 0},
      {"measurement": "Plant response rating, Oat, Wild", "setting": "oat, wild [6]; [25]", "value": 0},
      {"measurement": "Pigweed, Palmer plant response rating", "setting": "pigweed, palmer [7]; [24]", "value": 100},
      {"measurement": "Plant response rating, Pigweed, Palmer", "setting": "pigweed, palmer [7]; [25]", "value": 80},
      {"measurement": "Ragweed plant response rating", "setting": "ragweed [8]; [24]", "value": 80},
      {"measurement": "Plant response rating, Ragweed", "setting": "ragweed [8]; [25]", "value": 20},
      {"measurement": "Ryegrass, Italian plant response rating", "setting": "ryegrass, Italian [9]; [24]", "value": 70},
      {"measurement": "Plant response rating, Ryegrass, Italian", "setting": "ryegrass, Italian [9]; [25]", "value": 30},
      {"measurement": "Soybean plant response rating", "setting": "soybean [10]; [24]", "value": 0},
      {"measurement": "Plant response rating, Soybean", "setting": "soybean [10]; [25]", "value": 20},
      {"measurement": "Wheat plant response rating", "setting": "wheat [11]; [24]", "value": 0},
      {"measurement": "Plant response rating, Wheat", "setting": "wheat [11]; [25]", "value": 0},
      {"measurement": "Plant response rating, Barnyardgrass", "setting": "barnyardgrass [12]; 500 g ai/ha, postemergence", "value": 50},
      {"measurement": "Plant response rating, Barnyardgrass", "setting": "barnyardgrass [12]; Postemergence, 125 g ai/ha", "value": 20},
      {"measurement": "Plant response rating, Blackgrass", "setting": "blackgrass [13]; 500 g ai/ha, postemergence", "value": 60},
      {"measurement": "Plant response rating, Blackgrass", "setting": "blackgrass [13]; Postemergence, 125 g ai/ha", "value": 30},
      {"measurement": "Plant response rating, Corn", "setting": "corn [14]; 500 g ai/ha, postemergence", "value": 10},
      {"measurement": "Plant response rating, Corn", "setting": "corn [14]; Postemergence, 125 g ai/ha", "value": 10},
      {"measurement": "Plant response rating, Foxtail, Green", "setting": "green foxtail [15]; 500 g ai/ha, postemergence", "value": 50},
      {"measurement": "Plant response rating, Foxtail, Green", "setting": "green foxtail [15]; Postemergence, 125 g ai/ha", "value": 30},
      {"measurement": "Plant response rating, Kochia", "setting": "kochia [16]; 500 g ai/ha, postemergence", "value": 80},
      {"measurement": "Plant response rating, Kochia", "setting": "kochia [16]; Postemergence, 125 g ai/ha", "value": 40},
      {"measurement": "Plant response rating, Oat, Wild", "setting": "oat, wild [17]; 500 g ai/ha, postemergence", "value": 20},
      {"measurement": "Plant response rating, Oat, Wild", "setting": "oat, wild [17]; Postemergence, 125 g ai/ha", "value": 0},
      {"measurement": "Plant response rating, Pigweed, Palmer", "setting": "pigweed, palmer [18]; 500 g ai/ha, postemergence", "value": 90},
      {"measurement": "Plant response rating, Pigweed, Palmer", "setting": "pigweed, palmer [18]; Postemergence, 125 g ai/ha", "value": 70},
      {"measurement": "Plant response rating, Ragweed", "setting": "ragweed [19]; 500 g ai/ha, postemergence", "value": 50},
      {"measurement": "Plant response rating, Ragweed", "setting": "ragweed [19]; Postemergence, 125 g ai/ha", "value": 0},
      {"measurement": "Plant response rating, Ryegrass, Italian", "setting": "ryegrass, Italian [20]; 500 g ai/ha, postemergence", "value": 50},
      {"measurement": "Plant response rating, Ryegrass, Italian", "setting": "ryegrass, Italian [20]; Postemergence, 125 g ai/ha", "value": 40},
      {"measurement": "Plant response rating, Soybean", "setting": "soybean [21]; 500 g ai/ha, postemergence", "value": 100},
      {"measurement": "Plant response rating, Soybean", "setting": "soybean [21]; Postemergence, 125 g ai/ha", "value": 100},
      {"measurement": "Plant response rating, Wheat", "setting": "wheat [22]; 500 g ai/ha, postemergence", "value": 20},
      {"measurement": "Plant response rating, Wheat", "setting": "wheat [22]; Postemergence, 125 g ai/ha", "value": 20},
      {"measurement": "Plant response rating, Galium", "setting": "galium; 500 g ai/ha, postemergence", "value": 100},
      {"measurement": "Plant response rating, Galium", "setting": "galium; Postemergence, 125 g ai/ha", "value": 100},
      {"measurement": "Plant response rating, Horseweed", "setting": "horseweed; 500 g ai/ha, postemergence", "value": 0},
      {"measurement": "Plant response rating, Horseweed", "setting": "horseweed; Postemergence, 125 g ai/ha", "value": 0},
      {"measurement": "Plant response rating, Barnyardgrass (Flood)", "setting": "barnyardgrass [23]", "value": 0},
      {"measurement": "Plant response rating, Ducksalad (Flood)", "setting": "ducksalad", "value": 0},
      {"measurement": "Plant response rating, Rice (Flood)", "setting": "rice", "value": 0},
      {"measurement": "Plant response rating, Sedge, Umbrella (Flood)", "setting": "sedge, umbrella", "value": 0}
    ]}
  ]
}
